Measurements published in ChEMBL document CHEMBL1140961, “Synthesis and biological activity of some new benzoxazoles” (2008).
In brackets after ≈: the same amount, converted by molar mass.

Columns and labels:
Format in all cases: functional
Bacillus subtilis [1] = experiment: Antimicrobial activity against Bacillus subtilis isolate after 24 hrs by disk diffusion method
Pseudomonas aeruginosa = experiment: Antimicrobial activity against Pseudomonas aeruginosa ATCC […] after 24 hrs by disk diffusion method; settings: ATCC 25853, 24 h
Klebsiella pneumoniae [2] = experiment: Antimicrobial activity against Klebsiella pneumoniae RSHM 574 after 24 hrs by disk diffusion method
Bacillus subtilis [3] = experiment: Antimicrobial activity against Bacillus subtilis ATCC 6633 after 24 hrs by disk diffusion method; settings: ATCC 6633, 24 h
Candida albicans [4] = experiment: Antimicrobial activity against Candida albicans ATCC 10231 after 24 to 48 hrs after 24 hrs by disk diffusion method
Escherichia coli [5] = experiment: Antimicrobial activity against Escherichia coli isolate after 24 hrs by disk diffusion method
Candida albicans [6] = experiment: Antimicrobial activity against Candida albicans isolate after 24 to 48 hrs after 24 hrs by disk diffusion method
Escherichia coli [7] = experiment: Antimicrobial activity against Escherichia coli ATCC 25922 after 24 hrs by disk diffusion method; settings: ATCC 25922, 24 h
Staphylococcus aureus [8] = experiment: Antimicrobial activity against Staphylococcus aureus ATCC 25923 after 24 hrs by disk diffusion method; settings: ATCC 25923, 24 h
Klebsiella pneumoniae [9] = experiment: Antimicrobial activity against Klebsiella pneumoniae after 24 hrs by disk diffusion method
Staphylococcus aureus [10] = experiment: Antimicrobial activity against Staphylococcus aureus isolate after 24 hrs by disk diffusion method

CCS(=O)(=O)c1ccc2oc(Cc3ccc(Br)cc3)nc2c1 gave an MIC (Bacillus subtilis [1]) of 15.6 mg/L (≈ 41.1 µM), an MIC (Pseudomonas aeruginosa) of 62.5 mg/L (≈ 164 µM) and an MIC (Klebsiella pneumoniae [2]) of 62.5 mg/L (≈ 164 µM). It also gave an MIC (Bacillus subtilis [3]) of 62.5 mg/L (≈ 164 µM), an MIC (Candida albicans [4]) of 62.5 mg/L (≈ 164 µM) and an MIC (Escherichia coli [5]) of 125 mg/L (≈ 329 µM). The MIC (Candida albicans [6]) was 62.5 mg/L (≈ 164 µM), the MIC (Escherichia coli [7]) was 62.5 mg/L (≈ 164 µM) and the MIC (Staphylococcus aureus [8]) was 125 mg/L (≈ 329 µM). It also gave an MIC (Klebsiella pneumoniae [9]) of 125 mg/L (≈ 329 µM) and an MIC (Staphylococcus aureus [10]) of 125 mg/L (≈ 329 µM).

With CCS(=O)(=O)c1ccc2oc(-c3ccc([N+](=O)[O-])cc3)nc2c1 the MIC (Bacillus subtilis [1]) was 15.6 mg/L (≈ 47 µM), the MIC (Pseudomonas aeruginosa) was 62.5 mg/L (≈ 188 µM) and the MIC (Klebsiella pneumoniae [2]) was 125 mg/L (≈ 376 µM). For the same compound, the MIC (Bacillus subtilis [3]) was 31.2 mg/L (≈ 94 µM), the MIC (Candida albicans [4]) was 125 mg/L (≈ 376 µM) and the MIC (Escherichia coli [5]) was 62.5 mg/L (≈ 188 µM). For the same compound, the MIC (Candida albicans [6]) was 62.5 mg/L (≈ 188 µM), the MIC (Escherichia coli [7]) was 62.5 mg/L (≈ 188 µM) and the MIC (Staphylococcus aureus [8]) was 125 mg/L (≈ 376 µM). It also gave an MIC (Klebsiella pneumoniae [9]) of 125 mg/L (≈ 376 µM) and an MIC (Staphylococcus aureus [10]) of 125 mg/L (≈ 376 µM).

CCS(=O)(=O)c1ccc2oc(-c3ccc(Cl)cc3)nc2c1 was tested, and the MIC (Bacillus subtilis [1]) was 31.2 mg/L (≈ 97.1 µM), the MIC (Pseudomonas aeruginosa) was 62.5 mg/L (≈ 194 µM) and the MIC (Klebsiella pneumoniae [2]) was 62.5 mg/L (≈ 194 µM). The MIC (Bacillus subtilis [3]) was 7.81 mg/L (≈ 24.3 µM), the MIC (Candida albicans [4]) was 125 mg/L (≈ 388 µM) and the MIC (Escherichia coli [5]) was 62.5 mg/L (≈ 194 µM). The MIC (Candida albicans [6]) was 15.6 mg/L (≈ 48.5 µM), the MIC (Escherichia coli [7]) was 62.5 mg/L (≈ 194 µM) and the MIC (Staphylococcus aureus [8]) was 125 mg/L (≈ 388 µM). The MIC (Klebsiella pneumoniae [9]) was 125 mg/L (≈ 388 µM) and the MIC (Staphylococcus aureus [10]) was 125 mg/L (≈ 388 µM).

CCS(=O)(=O)c1ccc2oc(Cc3ccc(Cl)cc3)nc2c1 gave an MIC (Bacillus subtilis [1]) of 15.6 mg/L (≈ 46.5 µM), an MIC (Pseudomonas aeruginosa) of 62.5 mg/L (≈ 186 µM) and an MIC (Klebsiella pneumoniae [2]) of 62.5 mg/L (≈ 186 µM). It also gave an MIC (Bacillus subtilis [3]) of 31.2 mg/L (≈ 93.1 µM), an MIC (Candida albicans [4]) of 31.2 mg/L (≈ 93.1 µM) and an MIC (Escherichia coli [5]) of 125 mg/L (≈ 372 µM). For the same compound, the MIC (Candida albicans [6]) was 62.5 mg/L (≈ 186 µM), the MIC (Escherichia coli [7]) was 62.5 mg/L (≈ 186 µM) and the MIC (Staphylococcus aureus [8]) was 125 mg/L (≈ 372 µM). It also gave an MIC (Klebsiella pneumoniae [9]) of 125 mg/L (≈ 372 µM) and an MIC (Staphylococcus aureus [10]) of 125 mg/L (≈ 372 µM).

OC(Cn1cncn1)(Cn1cncn1)c1ccc(F)cc1F [FLUCONAZOLE] showed an MIC (Candida albicans [4]) of 1 mg/L (≈ 3.27 µM) and an MIC (Candida albicans [6]) of 64 mg/L (≈ 209 µM).

Work on CCS(=O)(=O)c1ccc2oc(-c3ccc(C(C)(C)C)cc3)nc2c1 yielded an MIC (Bacillus subtilis [1]) of 15.6 mg/L (≈ 45.5 µM), an MIC (Pseudomonas aeruginosa) of 62.5 mg/L (≈ 182 µM) and an MIC (Klebsiella pneumoniae [2]) of 62.5 mg/L (≈ 182 µM). For the same compound, the MIC (Bacillus subtilis [3]) was 7.81 mg/L (≈ 22.7 µM), the MIC (Candida albicans [4]) was 125 mg/L (≈ 364 µM) and the MIC (Escherichia coli [5]) was 62.5 mg/L (≈ 182 µM). The MIC (Candida albicans [6]) was 31.2 mg/L (≈ 91 µM), the MIC (Escherichia coli [7]) was 62.5 mg/L (≈ 182 µM) and the MIC (Staphylococcus aureus [8]) was 125 mg/L (≈ 364 µM). For the same compound, the MIC (Klebsiella pneumoniae [9]) was 250 mg/L (≈ 728 µM) and the MIC (Staphylococcus aureus [10]) was 125 mg/L (≈ 364 µM).

Compound CCS(=O)(=O)c1ccc2oc(-c3ccc(Br)cc3)nc2c1 has an MIC (Bacillus subtilis [1]) of 31.2 mg/L (≈ 85.3 µM), an MIC (Pseudomonas aeruginosa) of 62.5 mg/L (≈ 171 µM) and an MIC (Klebsiella pneumoniae [2]) of 62.5 mg/L (≈ 171 µM). For the same compound, the MIC (Bacillus subtilis [3]) was 15.6 mg/L (≈ 42.7 µM), the MIC (Candida albicans [4]) was 125 mg/L (≈ 341 µM) and the MIC (Escherichia coli [5]) was 62.5 mg/L (≈ 171 µM). The MIC (Candida albicans [6]) was 31.2 mg/L (≈ 85.3 µM), the MIC (Escherichia coli [7]) was 62.5 mg/L (≈ 171 µM) and the MIC (Staphylococcus aureus [8]) was 125 mg/L (≈ 341 µM). For the same compound, the MIC (Klebsiella pneumoniae [9]) was 125 mg/L (≈ 341 µM) and the MIC (Staphylococcus aureus [10]) was 125 mg/L (≈ 341 µM).

Compound CCS(=O)(=O)c1ccc2oc(CCc3ccccc3)nc2c1 has an MIC (Bacillus subtilis [1]) of 31.2 mg/L (≈ 99.1 µM), an MIC (Pseudomonas aeruginosa) of 62.5 mg/L (≈ 198 µM) and an MIC (Klebsiella pneumoniae [2]) of 31.2 mg/L (≈ 99.1 µM). The MIC (Bacillus subtilis [3]) was 62.5 mg/L (≈ 198 µM), the MIC (Candida albicans [4]) was 62.5 mg/L (≈ 198 µM) and the MIC (Escherichia coli [5]) was 125 mg/L (≈ 396 µM). For the same compound, the MIC (Candida albicans [6]) was 62.5 mg/L (≈ 198 µM), the MIC (Escherichia coli [7]) was 62.5 mg/L (≈ 198 µM) and the MIC (Staphylococcus aureus [8]) was 125 mg/L (≈ 396 µM). It also gave an MIC (Klebsiella pneumoniae [9]) of 125 mg/L (≈ 396 µM) and an MIC (Staphylococcus aureus [10]) of 125 mg/L (≈ 396 µM).

CCS(=O)(=O)c1ccc2oc(-c3ccccc3F)nc2c1 showed an MIC (Bacillus subtilis [1]) of 31.2 mg/L (≈ 102 µM), an MIC (Pseudomonas aeruginosa) of 62.5 mg/L (≈ 205 µM) and an MIC (Klebsiella pneumoniae [2]) of 31.2 mg/L (≈ 102 µM). For the same compound, the MIC (Bacillus subtilis [3]) was 62.5 mg/L (≈ 205 µM), the MIC (Candida albicans [4]) was 62.5 mg/L (≈ 205 µM) and the MIC (Escherichia coli [5]) was 250 mg/L (≈ 819 µM). It also gave an MIC (Candida albicans [6]) of 62.5 mg/L (≈ 205 µM), an MIC (Escherichia coli [7]) of 62.5 mg/L (≈ 205 µM) and an MIC (Staphylococcus aureus [8]) of 125 mg/L (≈ 409 µM). For the same compound, the MIC (Klebsiella pneumoniae [9]) was 125 mg/L (≈ 409 µM) and the MIC (Staphylococcus aureus [10]) was 125 mg/L (≈ 409 µM).

In the case of CCS(=O)(=O)c1ccc2oc(-c3ccccc3Br)nc2c1, the MIC (Bacillus subtilis [1]) was 31.2 mg/L (≈ 85.3 µM), the MIC (Pseudomonas aeruginosa) was 62.5 mg/L (≈ 171 µM) and the MIC (Klebsiella pneumoniae [2]) was 31.2 mg/L (≈ 85.3 µM). It also gave an MIC (Bacillus subtilis [3]) of 15.6 mg/L (≈ 42.7 µM), an MIC (Candida albicans [4]) of 62.5 mg/L (≈ 171 µM) and an MIC (Escherichia coli [5]) of 250 mg/L (≈ 683 µM). The MIC (Candida albicans [6]) was 62.5 mg/L (≈ 171 µM), the MIC (Escherichia coli [7]) was 62.5 mg/L (≈ 171 µM) and the MIC (Staphylococcus aureus [8]) was 125 mg/L (≈ 341 µM). It also gave an MIC (Klebsiella pneumoniae [9]) of 125 mg/L (≈ 341 µM) and an MIC (Staphylococcus aureus [10]) of 125 mg/L (≈ 341 µM).

CCc1ccc(-c2nc3cc(S(=O)(=O)CC)ccc3o2)cc1 showed an MIC (Bacillus subtilis [1]) of 31.2 mg/L (≈ 99.1 µM), an MIC (Pseudomonas aeruginosa) of 62.5 mg/L (≈ 198 µM) and an MIC (Klebsiella pneumoniae [2]) of 62.5 mg/L (≈ 198 µM). The MIC (Bacillus subtilis [3]) was 31.2 mg/L (≈ 99.1 µM), the MIC (Candida albicans [4]) was 125 mg/L (≈ 396 µM) and the MIC (Escherichia coli [5]) was 62.5 mg/L (≈ 198 µM). It also gave an MIC (Candida albicans [6]) of 15.6 mg/L (≈ 49.5 µM), an MIC (Escherichia coli [7]) of 62.5 mg/L (≈ 198 µM) and an MIC (Staphylococcus aureus [8]) of 125 mg/L (≈ 396 µM). For the same compound, the MIC (Klebsiella pneumoniae [9]) was 125 mg/L (≈ 396 µM) and the MIC (Staphylococcus aureus [10]) was 125 mg/L (≈ 396 µM).

For CCS(=O)(=O)c1ccc2oc(Cc3ccccc3Cl)nc2c1, the MIC (Bacillus subtilis [1]) was 31.2 mg/L (≈ 93.1 µM), the MIC (Pseudomonas aeruginosa) was 62.5 mg/L (≈ 186 µM) and the MIC (Klebsiella pneumoniae [2]) was 31.2 mg/L (≈ 93.1 µM). It also gave an MIC (Bacillus subtilis [3]) of 62.5 mg/L (≈ 186 µM), an MIC (Candida albicans [4]) of 62.5 mg/L (≈ 186 µM) and an MIC (Escherichia coli [5]) of 125 mg/L (≈ 372 µM). For the same compound, the MIC (Candida albicans [6]) was 62.5 mg/L (≈ 186 µM), the MIC (Escherichia coli [7]) was 62.5 mg/L (≈ 186 µM) and the MIC (Staphylococcus aureus [8]) was 125 mg/L (≈ 372 µM). The MIC (Klebsiella pneumoniae [9]) was 125 mg/L (≈ 372 µM) and the MIC (Staphylococcus aureus [10]) was 125 mg/L (≈ 372 µM).
